Measured values taken from patent US20240066028A1, “COMPOSITIONS FOR IMPROVED DELIVERY OF CGRP INHIBITORS” (Pfizer Ireland Pharmaceuticals, priority 2020, published 2024).

Legend:
[1] = Phase 2/3 dose-ranging clinical trial of intranasal BHV-3500; assay type: in vivo, human; settings: intranasal unit doses 5, 10 and 20 mg; treatment of migraine
[2] = Study BHV3500-107 Cohort 1: zavegepant 50 mg SoftGel QD PK (fasted Days 1-10, fed Days 11-14); assay type: in vivo, humans; settings: for Concentration: Cohort 1, 50 mg QD SoftGel, pre-dose
[3] = Study BHV3500-103 Treatment B: PK after 50 mg x 1 SoftGel orally; assay type: in vivo, humans; settings: Study 103, 50 mg SoftGel x 1 oral; for AUC(0-t) / AUC(0-inf) / Cmax / Tmax: human, in vivo, po, 50 mg
Description: Single-dose: Study BHV3500-103, PK data after 50 mg×1 (2×25 mg) SoftGel administered orally (Treatment B)

[4] = PK exposure from 10 mg intranasal (IN) zavegepant; assay type: in vivo, human; settings: 10 mg IN
[5] = female, beagle, dog, in vivo, 50 mg
human CGRP = human CGRP (Homo sapiens, UniProt O60894+Q16602); settings: cited from earlier work
in vivo = settings: female, beagle, dog, 50 mg; for AUC(0-t): AUC0-4 hr
[6] = Cohort 1, Day 10, 50 mg QD SoftGel oral, fasted, multiple dose, Max
[7] = Cohort 1, Day 10, 50 mg QD SoftGel oral, fasted, multiple dose, Min
[8] = Day 14 (with food, moderate fat meal) vs. Day 10 (fasted), 50 mg QD SoftGel
[9] = Study 107, Cohort 1, Day 1, 50 mg SoftGel single dose, fasted

Chain of human CGRP (Q16602 23-461): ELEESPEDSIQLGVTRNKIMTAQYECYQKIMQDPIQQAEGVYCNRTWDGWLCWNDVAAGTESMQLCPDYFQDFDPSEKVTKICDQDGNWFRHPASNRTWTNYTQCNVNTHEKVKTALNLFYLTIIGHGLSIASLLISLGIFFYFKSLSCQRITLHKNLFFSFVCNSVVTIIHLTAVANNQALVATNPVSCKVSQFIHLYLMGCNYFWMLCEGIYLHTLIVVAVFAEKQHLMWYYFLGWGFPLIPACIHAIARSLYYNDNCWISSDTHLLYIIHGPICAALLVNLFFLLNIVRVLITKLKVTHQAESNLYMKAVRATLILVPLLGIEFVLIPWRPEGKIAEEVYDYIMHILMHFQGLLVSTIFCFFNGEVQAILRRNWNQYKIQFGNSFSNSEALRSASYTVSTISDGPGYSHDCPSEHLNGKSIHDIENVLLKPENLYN
Chain of human CGRP (O60894 27-148): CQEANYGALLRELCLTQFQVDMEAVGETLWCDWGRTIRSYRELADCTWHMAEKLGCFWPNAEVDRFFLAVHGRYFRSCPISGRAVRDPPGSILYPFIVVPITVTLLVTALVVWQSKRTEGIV

Cc1cc(C[C@@H](NC(=O)N2CCC(c3cc4ccccc4[nH]c3=O)CC2)C(=O)N2CCN(C3CCN(C)CC3)CC2)cc2cn[nH]c12 [BHV-3500, (R)-N-(3-(7-methyl-1H-indazol-5-yl)-1-(4-(1-methylpiperidin-4-yl)piperazin-1-yl)-1-oxopropan-2-yl)-4-(2-oxo-1,2-dihydroquinolin-3-yl)piperidine-1-carboxamide]
lowest fully effective dose [1]: 10 mg | Pre-dose (C0) concentrations ([2]; 50 mg QD SoftGel, Days 1-14): largely below the LLOQ | Concentration ([2]; Day 6, fasting, Mean): 0.0936 ng/mL | Concentration ([2]; Day 10, fasting, Max): 8.5 ng/mL | Concentration ([2]; Day 10, fasting, Mean): 0.0582 ng/mL | Concentration ([2]; Day 12, moderate fat meal, Mean): 0.0764 ng/mL | Concentration ([2]; Day 12, moderate fat meal, Min): 0 ng/mL | Concentration ([2]; Day 14, moderate fat meal, Mean): 0 ng/mL | Concentration ([2]; Day 14, moderate fat meal, Min): 0 ng/mL | Cmax ([2]; Cohort 1, Day 1, 50 mg SoftGel oral, fasted, single dose, Max): 13.8 ng/mL | Residual area ([2]; Cohort 1, Day 1, 50 mg SoftGel oral, fasted, single dose, Median): 8.9% | Cmax ([2]; Cohort 1, Day 1, 50 mg SoftGel oral, fasted, single dose, Min): 1.42 ng/mL | Cmax [2, 6]: 46.1 ng/mL | Tmax [2, 6]: 5 h | Tmax ([2]; Cohort 1, Day 10, 50 mg QD SoftGel oral, fasted, multiple dose, Mean, listed as Zavegepant): 2.59 h | Cmax [2, 7]: 2.27 ng/mL | Tmax [2, 7]: 1.5 h | Cmax ([2]; Cohort 1, Day 14, 50 mg QD SoftGel oral, fed (moderate fat meal), multiple dose, Max): 3.02 ng/mL | Tmax ([2]; Cohort 1, Day 14, 50 mg QD SoftGel oral, fed (moderate fat meal), multiple dose, Min): 2.5 h | decrease in extent of absorption (AUC) with food [2, 8]: ~65% | decrease in rate of absorption (Cmax) with food [2, 8]: ~72% | Tmax ([2]; Day 14, fed (moderate fat meal), multiple dose, 50 mg QD SoftGel, statistic not stated, listed as zavegepant): 3.6 h | AUC0-24, Max [2, 9]: 46.3 ng·h/mL | AUC0-24, Mean [2, 9]: 19.1 ng·h/mL | AUC0-24, Min [2, 9]: 4.66 ng·h/mL | AUCINF_obs, Max [2, 9]: 47.8 ng·h/mL | AUCINF_obs, Mean [2, 9]: 22.6 ng·h/mL | AUCINF_obs, Min [2, 9]: 9.54 ng·h/mL | Cmax, Max [2, 9]: 13.8 ng/mL | Cmax, Min [2, 9]: 1.42 ng/mL | HL_Lambda_z, Geometric Mean [2, 9]: 2.48 h | HL_Lambda_z, Max [2, 9]: 5.07 h | HL_Lambda_z, Mean [2, 9]: 2.66 h | HL_Lambda_z, Median [2, 9]: 2.19 h | HL_Lambda_z, Min [2, 9]: 1.62 h | Tmax, Max [2, 9]: 5.00 h | steady state achieved by ([2]; concentrations at 8 hours post-dose, multiple dosing 50 mg QD, fasted state): ≤ 3 days | Cmax ([2]; human, in vivo, oral, 50 mg, Day 10, steady state, fasting, 50 mg QD SoftGel, statistic not stated, range 2.3 to 46.1, read-out: Cmax): 5.7 ng/mL | AUC(0-t) ([2]; human, in vivo, oral, 50 mg, Day 10, steady state, fasting, 50 mg QD SoftGel, statistic not stated, range 6.7 to 75.4, read-out: AUC0-24): 20.4 ng·h/mL | Tmax ([2]; human, in vivo, oral, 50 mg, Day 10, steady state, fasting, 50 mg QD SoftGel, statistic not stated, read-out: Tmax): 2 h | Tmax ([2]; human, in vivo, oral, 50 mg, Day 14, fed (moderate fat meal), multiple dose, 50 mg QD SoftGel, statistic not stated, read-out: Tmax): 4 h | Cmax ([2]; human, in vivo, oral, 50 mg, Day 14, fed (moderate fat meal), 50 mg QD SoftGel, statistic not stated, range 1.0 to 3.0, read-out: Cmax): 1.6 ng/mL | AUC(0-t) ([2]; human, in vivo, oral, 50 mg, Day 14, fed (moderate fat meal), 50 mg QD SoftGel, statistic not stated, range 3.7 to 16.6, read-out: AUC0-24): 7.3 ng·h/mL | AUC(0-t) ([2]; human, in vivo, oral, 50 mg, Study 107, Cohort 1, Day 1, 50 mg SoftGel single dose, fasted, read-out: AUC0-24, Geometric Mean): 15.8 ng·h/mL | AUC(0-t) ([2]; human, in vivo, oral, 50 mg, Study 107, Cohort 1, Day 1, 50 mg SoftGel single dose, fasted, read-out: AUC0-24, Median): 16.7 ng·h/mL | AUC(0-inf) ([2]; human, in vivo, oral, 50 mg, Study 107, Cohort 1, Day 1, 50 mg SoftGel single dose, fasted, read-out: AUCINF_obs, Geometric Mean): 20 ng·h/mL | AUC(0-inf) ([2]; human, in vivo, oral, 50 mg, Study 107, Cohort 1, Day 1, 50 mg SoftGel single dose, fasted, read-out: AUCINF_obs, Median): 20.6 ng·h/mL | Cmax ([2]; human, in vivo, oral, 50 mg, Study 107, Cohort 1, Day 1, 50 mg SoftGel single dose, fasted, read-out: Cmax, Geometric Mean): 5.3 ng/mL | Cmax ([2]; human, in vivo, oral, 50 mg, Study 107, Cohort 1, Day 1, 50 mg SoftGel single dose, fasted, read-out: Cmax, Mean): 6.32 ng/mL | Cmax ([2]; human, in vivo, oral, 50 mg, Study 107, Cohort 1, Day 1, 50 mg SoftGel single dose, fasted, read-out: Cmax, Median): 5.73 ng/mL | Tmax ([2]; human, in vivo, oral, 50 mg, Study 107, Cohort 1, Day 1, 50 mg SoftGel single dose, fasted, read-out: Tmax, Geometric Mean): 2.18 h | Tmax ([2]; human, in vivo, oral, 50 mg, Study 107, Cohort 1, Day 1, 50 mg SoftGel single dose, fasted, read-out: Tmax, Mean): 2.42 h | Tmax ([2]; human, in vivo, oral, 50 mg, Study 107, Cohort 1, Day 1, 50 mg SoftGel single dose, fasted, read-out: Tmax, Median): 2.25 h | Tmax ([2]; human, in vivo, po, 50 mg, Cohort 1, Day 1, 50 mg SoftGel oral, fasted, single dose, Geometric Mean, read-out: Tmax): 2.18 h | Cmax ([2]; human, in vivo, po, 50 mg, Cohort 1, Day 1, 50 mg SoftGel oral, fasted, single dose, Mean, read-out: Cmax): 6.32 ng/mL | Tmax ([2]; human, in vivo, po, 50 mg, Cohort 1, Day 1, 50 mg SoftGel oral, fasted, single dose, Mean, read-out: Tmax): 2.42 h | Cmax ([2]; human, in vivo, po, 50 mg, Cohort 1, Day 1, 50 mg SoftGel oral, fasted, single dose, Median, read-out: Cmax): 6.78 ng/mL | Tmax ([2]; human, in vivo, po, 50 mg, Cohort 1, Day 1, 50 mg SoftGel oral, fasted, single dose, Median, read-out: Tmax): 2.25 h | Tmax ([2]; human, in vivo, po, 50 mg, Cohort 1, Day 10, 50 mg QD SoftGel oral, fasted, multiple dose, Geometric Mean, read-out: Tmax): 2.35 h | Cmax ([2]; human, in vivo, po, 50 mg, Cohort 1, Day 10, 50 mg QD SoftGel oral, fasted, multiple dose, Mean, read-out: Cmax): 9.71 ng/mL | Tmax ([2]; human, in vivo, po, 50 mg, Cohort 1, Day 10, 50 mg QD SoftGel oral, fasted, multiple dose, Mean, read-out: Tmax): 2.69 h | Cmax ([2]; human, in vivo, po, 50 mg, Cohort 1, Day 10, 50 mg QD SoftGel oral, fasted, multiple dose, Median, read-out: Cmax): 4.7 ng/mL | Tmax ([2]; human, in vivo, po, 50 mg, Cohort 1, Day 10, 50 mg QD SoftGel oral, fasted, multiple dose, Median, read-out: Tmax): 2 h | Cmax ([2]; human, in vivo, po, 50 mg, Cohort 1, Day 14, 50 mg QD SoftGel oral, fed (moderate fat meal), multiple dose, Geometric Mean, read-out: Cmax): 1.62 ng/mL | Tmax ([2]; human, in vivo, po, 50 mg, Cohort 1, Day 14, 50 mg QD SoftGel oral, fed (moderate fat meal), multiple dose, Geometric Mean, read-out: Tmax): 3.63 h | Tmax ([2]; human, in vivo, po, 50 mg, Cohort 1, Day 14, 50 mg QD SoftGel oral, fed (moderate fat meal), multiple dose, Mean, read-out: Tmax): 3.78 h | Cmax ([2]; human, in vivo, po, 50 mg, Cohort 1, Day 14, 50 mg QD SoftGel oral, fed (moderate fat meal), multiple dose, Median, read-out: Cmax): 1.48 ng/mL | AUC0-24, Max [3]: 59.0 ng·h/mL | AUCINF_obs, Max [3]: 60.1 ng·h/mL | AUCINF_obs, Min [3]: 9.21 ng·h/mL | Cmax, Max [3]: 26.8 ng/mL | Cmax, Min [3]: 1.86 ng/mL | HL_Lambda_z, Geometric Mean [3]: 2.17 h | HL_Lambda_z, Max [3]: 4.74 h | HL_Lambda_z, Mean [3]: 2.28 h | HL_Lambda_z, Median [3]: 1.98 h | HL_Lambda_z, Min [3]: 1.48 h | Tmax, Min [3]: 0.500 h | AUC(0-t) ([3]; read-out: AUC0-24, Geometric Mean): 21 ng·h/mL | AUC(0-t) ([3]; read-out: AUC0-24, Mean): 25.3 ng·h/mL | AUC(0-t) ([3]; read-out: AUC0-24, Median): 18.8 ng·h/mL | AUC(0-inf) ([3]; read-out: AUCINF_obs, Geometric Mean): 21.5 ng·h/mL | AUC(0-inf) ([3]; read-out: AUCINF_obs, Mean): 25.8 ng·h/mL | AUC(0-inf) ([3]; read-out: AUCINF_obs, Median): 19.1 ng·h/mL | Cmax ([3]; read-out: Cmax, Geometric Mean): 7.6 ng/mL | Cmax ([3]; read-out: Cmax, Mean): 10.8 ng/mL | Cmax ([3]; read-out: Cmax, Median): 7.06 ng/mL | Tmax ([3]; read-out: Tmax, Geometric Mean): 1.65 h | Tmax ([3]; read-out: Tmax, Mean): 1.98 h | Tmax ([3]; read-out: Tmax, Median): 1.75 h | AUC [4]: 33.0 ng·h/mL | AUC0-4 hr, Median/Average [5]: 44.4 ng·h/mL | Cmax, Median/Average [5]: 31.7 ng/mL | Tmax, Median/Average [5]: 0.5 h | t1/2, Median/Average [5]: 0.71 h | Ki (human CGRP): 0.023 nM | AUC(0-t) (in vivo): 40.3 ng·h/mL | AUC(0-t) (in vivo; Median/Average): 55.1 ng·h/mL | Cmax (in vivo; Cmax, Median/Average): 37 ng/mL | Tmax (in vivo; Tmax, Median/Average): 1 h | half-life (in vivo; t1/2): 0.54 h | half-life (in vivo; t1/2, Median/Average): 0.77 h
